The target in assay [1] is T1, 20S Human Erythrocyte Proteasome (HEP) (Homo sapiens, UniProt P20618+P28074).
T1 construct: 20S Human Erythrocyte Proteasome (HEP), purchased from Immatics Biotechnologies Inc; purchased Immatics Biotechnologies Inc., Tübingen, Germany; host or cells: human erythrocytes (natural source)
The experiment in a line: Chymotrypsin-like activity of 20S Human Erythrocyte Proteasome (HEP), IC50 determination. It counts as biochemical. The following applies: assay of Example C, inhibition of HEP. The procedure, abridged: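 20S proteasome at 0.2 μg/mL (about 0.6 nM catalytic sites) in 20 mM Tris with 0.04% SDS, preincubated 15 min at 37° C with inhibitor before Suc-LLVY-AMC (100 μM final). AMC fluorescence read in the linear range; triplicates, IC50 from concentration series.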

The target in assay [2] is T2, proteasome in Molt-4 cells (human leukemia) (Homo sapiens, UniProt P20618+P28074).
T2 sequence (P28074 60-263): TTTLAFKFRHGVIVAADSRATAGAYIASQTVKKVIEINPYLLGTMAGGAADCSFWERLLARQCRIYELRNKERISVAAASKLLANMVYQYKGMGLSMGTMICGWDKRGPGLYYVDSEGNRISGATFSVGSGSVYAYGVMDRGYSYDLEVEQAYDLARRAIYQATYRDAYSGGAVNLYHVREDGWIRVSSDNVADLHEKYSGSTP
T2 sequence (P20618 29-241): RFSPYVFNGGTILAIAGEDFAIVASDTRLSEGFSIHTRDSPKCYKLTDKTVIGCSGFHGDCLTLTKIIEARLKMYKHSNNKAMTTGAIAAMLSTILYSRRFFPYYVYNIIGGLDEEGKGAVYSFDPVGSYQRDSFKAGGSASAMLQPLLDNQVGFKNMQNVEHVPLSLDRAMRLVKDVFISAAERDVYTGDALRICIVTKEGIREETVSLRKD
It counts as cell-based. The following applies: assay of Example E, inhibition of MOLT4; read-out: MOLT4 (EC50). The procedure, abridged: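 Intact Molt-4 cells (6×10^6 cells/mL) in HEPES-buffered saline were preincubated with inhibitor 15 min at 37 °C, then given cell-permeable MeOSuc-FLF-AFC at 25 μM final.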

A value given as a limit tells only on which side of the number the result lay.

Usually IC50 stands for the point on the concentration scale where inhibition reaches its midpoint. A low value points to greater potency in that assay. One may read the EC50 as the concentration at which the effect is half-maximal. `C/C(=C\c1ccccc1)C(=O)N[C@@H](CCCNC(=N)N[N+](=O)[O-])C(=O)N[C@@H](CC(C)C)B(O)O` [D.7.2, Boronic acid, [(1R)-1-[[(2S)-5-[[imino(nitroamino)methyl]amino]-2-[((E)-2-methyl-3-phenylacryl)amino]-1-oxopentyl]amino]-3-methylbutyl]] registered an IC50 in assay [1] of under 10 nM. The EC50 in assay [2] was 2 to 10 µM.
The like results for `Cc1ccc(CCCC(=O)N[C@@H](CCCNC(=N)N[N+](=O)[O-])C(=O)N[C@@H](CC(C)C)B(O)O)cc1` [D.7.3, Boronic acid, [(1R)-1-[[(2S)-5-[[imino(nitroamino)methyl]amino]-2-[(4-(4-methylphenyl)butanoyl)amino]-1-oxopentyl]amino]-3-methylbutyl]] were, in that order, under 10 nM and 2 to 10 µM.
The matching figures for `CC(C)C[C@H](NC(=O)[C@H](CCCNC(=N)N[N+](=O)[O-])NC(=O)COc1ccc(C(C)C)cc1)B(O)O` [D.7.5, Boronic acid, [(1R)-1-[[(2S)-5-[[imino(nitroamino)methyl]amino]-2-[(2-(4-isopropylphenoxy)acetyl)amino]-1-oxopentyl]amino]-3-methylbutyl]]: under 10 nM and 0.2 to 2 µM.
`CC(C)C[C@H](NC(=O)[C@H](CCCNC(=N)N[N+](=O)[O-])NC(=O)CCCC(=O)c1ccccc1)B(O)O` [D.7.6, Boronic acid, [(1R)-1-[[(2S)-5-[[imino(nitroamino)methyl]amino]-2-[(5-oxo-5-phenylpentanoyl)amino]-1-oxopentyl]amino]-3-methylbutyl]] came in with a concentration for half-maximal inhibition (IC50) in assay [1] of under 10 nM. In assay [2], the EC50 was over 10 µM.
The like results for `CCN(CC)c1ccc(C(=O)N[C@@H](CCCNC(=N)N[N+](=O)[O-])C(=O)N[C@@H](CC(C)C)B(O)O)cc1` [D.7.8, Boronic acid, [(1R)-1-[[(2S)-5-[[imino(nitroamino)methyl]amino]-2-[(4-diethylaminobenzoyl)amino]-1-oxopentyl]amino]-3-methylbutyl]] were, in that order, under 10 nM and over 10 µM.
Turning to `CC(C)C[C@H](NC(=O)[C@H](CCCNC(=N)N[N+](=O)[O-])NC(=O)c1ccc(C(C)C)cc1)B(O)O` [D.7.11, Boronic acid, [(1R)-1-[[(2S)-5-[[imino(nitroamino)methyl]amino]-2-[(4-isopropylbenzoyl)amino]-1-oxopentyl]amino]-3-methylbutyl]], the IC50 in assay [1] was under 10 nM. In addition, in assay [2], the EC50 lay in the range of 2 to 10 µM.
The matching figures for `Cc1ccc(C(=O)N[C@@H](CCCNC(=N)N[N+](=O)[O-])C(=O)N[C@@H](CC(C)C)B(O)O)s1` [D.7.12, Boronic acid, [(1R)-1-[[(2S)-5-[[imino(nitroamino)methyl]amino]-2-[(5-methylthiophene-2-carbonyl)amino]-1-oxopentyl]amino]-3-methylbutyl]]: under 10 nM and over 10 µM.
`Cc1ccc(C)c(OCCCC(C)(C)C(=O)N[C@@H](CCCNC(=N)N[N+](=O)[O-])C(=O)N[C@@H](CC(C)C)B(O)O)c1` [D.7.17, Boronic acid, [(1R)-1-[[(2S)-5-[[imino(nitroamino)methyl]amino]-2-[[5-(2,5-dimethylphenoxy)-2,2-dimethylpentanoyl]amino]-1-oxopentyl]amino]-3-methylbutyl]] returned a 50% inhibitory concentration (IC50) in assay [1] of under 10 nM. In addition, the EC50 in assay [2] was 0.2 to 2 µM.
The like results for `CC(C)C[C@H](NC(=O)[C@H](CCCNC(=N)N[N+](=O)[O-])NC(=O)CCCc1cccs1)B(O)O` [D.7.19, Boronic acid, [(1R)-1-[[(2S)-5-[[imino(nitroamino)methyl]amino]-2-[[4-(thiophen-2-yl)butanoyl]amino]-1-oxopentyl]amino]-3-methylbutyl]] were, in that order, under 10 nM and 2 to 10 µM.
The matching figures for `CC(C)C[C@H](NC(=O)[C@H](CCCNC(=N)N[N+](=O)[O-])NC(=O)CCCCc1ccc(F)cc1)B(O)O` [D.7.20, Boronic acid, [(1R)-1-[[(2S)-5-[[imino(nitroamino)methyl]amino]-2-[[5-(4-fluorophenyl)pentanoyl]amino]-1-oxopentyl]amino]-3-methylbutyl]]: under 10 nM and 2 to 10 µM.
The like results for `CCCCC(C)(C)C(=O)N[C@@H](CCCNC(=N)N[N+](=O)[O-])C(=O)N[C@@H](CC(C)C)B(O)O` [D.7.21, Boronic acid, [(1R)-1-[[(2S)-5-[[imino(nitroamino)methyl]amino]-2-[(2,2-dimethylhexanoyl)amino]-1-oxopentyl]amino]-3-methylbutyl]] were, in that order, under 10 nM and 2 to 10 µM.
Compound `CC(C)C[C@H](NC(=O)[C@H](CCCNC(=N)N[N+](=O)[O-])NC(=O)/C=C/c1cccs1)B(O)O` [D.7.23, Boronic acid, [(1R)-1-[[(2S)-5-[[imino(nitroamino)methyl]amino]-2-[[3-(thiophen-2-yl)propenoyl]amino]-1-oxopentyl]amino]-3-methylbutyl]] gave an IC50 in assay [1] of under 10 nM. Further, the EC50 in assay [2] is over 10 µM.
The matching figures for `CC(C)C[C@H](NC(=O)[C@H](CCCNC(=N)N[N+](=O)[O-])NC(=O)CCCCC1CCCCC1)B(O)O` [D.7.24, Boronic acid, [(1R)-1-[[(2S)-5-[[imino(nitroamino)methyl]amino]-2-[(5-cyclohexylpentanoyl)amino]-1-oxopentyl]amino]-3-methylbutyl]]: under 10 nM and 0.2 to 2 µM.
The matching figures for `CC(C)=CCC[C@@H](C)CC(=O)N[C@@H](CCCNC(=N)N[N+](=O)[O-])C(=O)N[C@@H](CC(C)C)B(O)O` [D.7.25, Boronic acid, [(1R)-1-[[(2S)-5-[[imino(nitroamino)methyl]amino]-2-[((3R)-3,7-dimethyloct-6-enoyl)amino]-1-oxopentyl]amino]-3-methylbutyl]]: under 10 nM and 2 to 10 µM.
The like results for `Cc1ccc(CSCCC(=O)N[C@@H](CCCNC(=N)N[N+](=O)[O-])C(=O)N[C@@H](CC(C)C)B(O)O)cc1` [D.7.26, Boronic acid, [(1R)-1-[[(2S)-5-[[imino(nitroamino)methyl]amino]-2-[[3-[(4-methylbenzyl)sulfanyl]propanoyl]amino]-1-oxopentyl]amino]-3-methylbutyl]] were, in that order, under 10 nM and 2 to 10 µM.
`CC(C)C[C@H](NC(=O)[C@H](CCCNC(=N)N[N+](=O)[O-])NC(=O)c1ccc(-n2cccc2)cc1)B(O)O` [D.7.27, Boronic acid, [(1R)-1-[[(2S)-5-[[imino(nitroamino)methyl]amino]-2-[(4-pyrrol-1-ylbenzoyl)amino]-1-oxopentyl]amino]-3-methylbutyl]] returned an IC50 in assay [1] of under 10 nM. Also, in assay [2], the EC50 is 2 to 10 µM.
The matching figures for `COc1ccc(F)cc1C(=O)N[C@@H](CCCNC(=N)N[N+](=O)[O-])C(=O)N[C@@H](CC(C)C)B(O)O` [D.7.28, Boronic acid, [(1R)-1-[[(2S)-5-[[imino(nitroamino)methyl]amino]-2-[(5-fluoro-2-methoxybenzoyl)amino]-1-oxopentyl]amino]-3-methylbutyl]]: under 10 nM and over 10 µM.
The matching figures for `CC(C)C[C@H](NC(=O)[C@H](CCCNC(=N)N[N+](=O)[O-])NC(=O)C1CC1)B(O)O` [D.7.30, Boronic acid, [(1R)-1-[[(2S)-5-[[imino(nitroamino)methyl]amino]-2-[(cyclopropanecarbonyl)amino]-1-oxopentyl]amino]-3-methylbutyl]]: under 100 nM and over 10 µM.
The matching figures for `CCOc1ccc(C(=O)N[C@@H](CCCNC(=N)N[N+](=O)[O-])C(=O)N[C@@H](CC(C)C)B(O)O)cc1` [D.7.31, Boronic acid, [(1R)-1-[[(2S)-5-[[imino(nitroamino)methyl]amino]-2-[(4-ethoxybenzoyl)amino]-1-oxopentyl]amino]-3-methylbutyl]]: under 10 nM and over 10 µM.
In the case of `CC(C)C[C@H](NC(=O)[C@H](CCCNC(=N)N[N+](=O)[O-])NC(=O)/C=C/c1ccc(Br)cc1)B(O)O` [D.7.32, Boronic acid, [(1R)-1-[[(2S)-5-[[imino(nitroamino)methyl]amino]-2-[((E)-3-(4-bromophenyl)prop-2-enoyl)amino]-1-oxopentyl]amino]-3-methylbutyl]], the IC50 in assay [1] was under 10 nM. In addition, in assay [2], the concentration giving a half-maximal response (EC50) was in the range of 2 to 10 µM.
Consider `COc1ccc2cc([C@H](C)C(=O)N[C@@H](CCCNC(=N)N[N+](=O)[O-])C(=O)N[C@@H](CC(C)C)B(O)O)ccc2c1` [D.7.33, Boronic acid, [(1R)-1-[[(2S)-5-[[imino(nitroamino)methyl]amino]-2-[[(2S)-2-(6-methoxynaphthalen-2-yl)-propanoyl]amino]-1-oxopentyl]amino]-3-methylbutyl]], for which the IC50 in assay [1] is under 10 nM. Also, in assay [2], the EC50 fell in the range of 2 to 10 µM.
The like results for `COc1ccc(C(=O)N[C@@H](CCCNC(=N)N[N+](=O)[O-])C(=O)N[C@@H](CC(C)C)B(O)O)cc1F` [D.7.35, Boronic acid, [(1R)-1-[[(2S)-5-[[imino(nitroamino)methyl]amino]-2-[(3-fluoro-4-methoxybenzoyl)amino]-1-oxopentyl]amino]-3-methylbutyl]] were, in that order, under 10 nM and over 10 µM.

(Values after US8546608B2, “Proteasome inhibitors and methods of using the same” (Cephalon, Inc., priority 2003, dated 2013).)
